Results taken from patent publication US9510598B2, “Nitrogen-containing heterocyclic compounds for plant disease control” (BAYER CROPSCIENCE AG, priority 2012, dated 2016).

Assay type: physicochemical
Details: HPLC on reversed phase columns, method [a]: pH 2.7, 0.1% formic acid in water and acetonitrile, linear gradient 10% to 95% acetonitrile

| SMILES | log P |
| --- | --- |
| C#Cc1cnc2ccc(C3=NOC(C)(C(=O)NCc4cncnc4)C3)cc2c1 (centres unmarked) [compound 697] | 1.74[a] |
| COc1cncc(CNC(=O)C2(C)CC(c3ccc4ncc(Br)cc4c3)=NO2)c1 (centres unmarked) [compound 698] | 1.78[a] |
| C#Cc1cnc2ccc(C3=NOC(C)(C(=O)Nc4cnn(CC)c4)C3)cc2c1 (centres unmarked) [compound 699] | 2.17[a] |
| C#CC1(C(=O)NCc2cn(CCC)nc2C)CC(c2ccc3ncc(Br)cc3c2)=NO1 (centres unmarked) [compound 700] | 2.78[a] |
| C#Cc1cnc2ccc(C3=NOC(C)(C(=O)NC(C)CN(C)C)C3)cc2c1 (centres unmarked) [compound 701] | 1.42[a] |
| COC1(C(=O)NC2CCN(C)CC2)CC(c2ccc3ncc(I)cc3c2)=NO1 (centres unmarked) [compound 702] | 1.67[a] |
| CCn1cc(CNC(=O)C2(C)CC(c3ccc4ncc(Br)cc4c3)=NO2)c(Cl)n1 (centres unmarked) [compound 704] | 2.84[a] |
| C#Cc1cnc2ccc(C3=NOC(OC)(C(=O)NCc4cn(CC)nc4Cl)C3)cc2c1 (centres unmarked) [compound 705] | 2.51[a] |
| CC1(C(=O)NCc2cnccn2)CC(c2ccc3ncc(Br)cc3c2)=NO1 (centres unmarked) [compound 706] | 2.10[a] |
| Cn1c(C(=NOCc2cccc(NC(=O)C3(C)CC(c4ccc5ncc(Br)cc5c4)=NO3)n2)c2ccccc2)noc1=O (centres unmarked) [compound 707] | 4.49[a] |
| C#Cc1cnc2ccc(C3=NOC(OC)(C(=O)NCc4cnccn4)C3)cc2c1 (centres unmarked) [compound 708] | 1.85[a] |
| CCn1cc(CNC(=O)C2(C#N)CC(c3ccc4ncc(Br)cc4c3)=NO2)c(C)n1 (centres unmarked) [compound 709] | 2.51[a] |
| CC1(C(=O)NCCC2CC2)CC(c2ccc3ncc(Br)cc3c2)=NO1 (centres unmarked) [compound 710] | 3.17[a] |
| COC1(C(=O)Nc2cccc(CON=C(c3ccccc3)c3noc(=O)n3C)n2)CC(c2ccc3ncc(Br)cc3c2)=NO1 (centres unmarked) [compound 711] | 4.39[a] |
| COc1ccc(CCNC(=O)C2(OC)CC(c3ccc4ncc(Br)cc4c3)=NO2)cc1OC (centres unmarked) [compound 712] | 2.94[a] |
| CC1(C(=O)NCCC2CCCO2)CC(c2ccc3ncc(Br)cc3c2)=NO1 (centres unmarked) [compound 713] | 2.39[a] |
| C=C(C)CNC(=O)C1(C)CC(c2ccc3ncc(Br)cc3c2)=NO1 (centres unmarked) [compound 715] | 2.90[a] |
| CC(C)(C#N)NC(=O)C1(C)CC(c2ccc3ncc(Br)cc3c2)=NO1 (centres unmarked) [compound 716] | 2.68[a] |
| C#CC(CC)(CC)NC(=O)C1(C)CC(c2ccc3ncc(Br)cc3c2)=NO1 (centres unmarked) [compound 717] | 3.96[a] |
| C#CC1(NC(=O)C2(C)CC(c3ccc4ncc(Br)cc4c3)=NO2)CC1 (centres unmarked) [compound 718] | 2.64[a] |
| C#Cc1cnc2ccc(C3=NOC(OC)(C(=O)NCCC4CC4)C3)cc2c1 (centres unmarked) [compound 719] | 2.78[a] |
| CC1(C(=O)NCCC#N)CC(c2ccc3ncc(Br)cc3c2)=NO1 (centres unmarked) [compound 720] | 2.15[a] |
| CCC(C#N)NC(=O)C1(C)CC(c2ccc3ncc(Br)cc3c2)=NO1 (centres unmarked) [compound 721] | 2.75[a] |
| C#CC1(NC(=O)C2(C)CC(c3ccc4ncc(Br)cc4c3)=NO2)COC1 (centres unmarked) [compound 722] | 2.37[a] |
| C/C(=N\O)NC(=O)C1(C)CC(c2ccc3ncc(Br)cc3c2)=NO1 (centres unmarked) [compound 723] | 2.04[a] |
| CCn1cc(CNC(=O)C2(C)CC(c3ccc4ncc(Br)c(Cl)c4c3)=NO2)c(C)n1 (centres unmarked) [compound 735] | 2.69[a] |
| CC(C)NC(=O)C1(C)CC(c2ccc3ncc(Br)c(Cl)c3c2)=NO1 (centres unmarked) [compound 736] | 2.39[a] |
| CC(C)NC(=O)C1(C#N)CC(c2ccc3ncc(Br)cc3c2)=NO1 (centres unmarked) [compound 737] | 2.86[a] |
| CC(C)/C(=N\O)NC(=O)C1(C)CC(c2ccc3ncc(Br)cc3c2)=NO1 (centres unmarked) [compound 738] | 2.50[a] |
